We go through three compounds from patent US7541360B2, “4-amino-7,8-dihydropteridines, pharmaceutical compositions containing them and their use for the treatment of diseases which are caused by an increased nitric oxide level” (Vasopharm GmbH, priority 2003, dated 2009).

The data set in a line: In vivo stability: half-life for blood clearance after intravenous injection, venous blood analysed by LC-MS/MS. Conditions: i.v. 1-10 mg/kg, male Sprague-Dawley rats; for t1/2 (dihydro), half-life for blood clearance: corresponding dihydro-derivative formed spontaneously in vivo from the injected tetrahydro-compound, venous blood; for t1/2 (tetrahydro), half-life for blood clearance: injected tetrahydro-compound, venous blood up to eight hours. Here is the method: The compounds 4-N-cyclohexylmethylamino-5,6,7,8-tetrahydrobiopterin (compound A), 2-amino-4-piperidino-6-phenyl-(R,S)-5,6,7,8-tetrahydropteridin (compound B) and 2-amino-4-di-n-propylamino-6-(4-methoxyphenyl)-(R,S)-5,6,7,8-tetrahydropteridin (compound C) were intravenously injected into male Sprague-Dawley rats (1-10 mg/kg). Venous blood samples were taken up to eight hours after the injections and analyzed for the injected tetrahydro-compounds and for their corresponding dihydro-derivatives, which are spontaneously formed in vivo, by LC-MS/MS.

As for “2-amino-4-di-n-propylamino-6-(4-methoxyphenyl)-(R,S)-5,6,7,8-tetrahydropteridin [Compound C]”, the “t1/2 (dihydro), half-life for blood clearance” value (“t1/2 (dihydro), half-life” below) was approximately 30 min and the “t1/2 (tetrahydro), half-life for blood clearance” value (“t1/2 (tetrahydro), half-life” for short) is on record as <<5 min.

As for `CC(O)C(O)C1CNc2nc(N)nc(NCC3CCCCC3)c2N1` (stereo not drawn) [Compound A, 4-N-cyclohexylmethylamino-5,6,7,8-tetrahydrobiopterin], the “t1/2 (dihydro), half-life” value is 48 min and the “t1/2 (tetrahydro), half-life” value is <<5 min.

Take `Nc1nc2c(c(N3CCCCC3)n1)NC(c1ccccc1)CN2` (racemic) [Compound B, 2-amino-4-piperidino-6-phenyl-(R,S)-5,6,7,8-tetrahydropteridin]: the “t1/2 (dihydro), half-life” value was approximately 20 min and the “t1/2 (tetrahydro), half-life” value was <<5 min.
